The numbers were not newly measured in PubChem BioAssay AID1259409 (Chemical Carcinogenesis Research Information System (CCRIS), 2018), which cites them from elsewhere.

Molecules are shown by their SMILES.

The data set has as its system rodent chemically induced tumor inhibition, incidence and multiplicity. In words: CCRIS tumor inhibitor studies. Particulars: Route [Inhibitor]: ORAL, Species: RAT, Strain/Sex: SPRAGUE-DAWLEY/FEMALE.

With `COc1ccc(C[C@H]2COC(=O)[C@@H]2Cc2ccc(O[C@@H]3O[C@H](CO)[C@@H](O)[C@H](O)[C@H]3O)c(OC)c2)cc1OC`, the “tumour outcome (control, treated, inhibition, significance)” value is 12/20 (60%), 10/19 (53%), 12%, not significant (Carcinogen: 2-AMINO-1-METHYL-6-PHENYL-1H-IMIDAZO[4,5-B]PYRID INE, 105650-23-5, Dose [Inhibitor]: 0, 0.02% IN THE DIET FOR 8 WK BEGINNING 3 D POST LAST CARCINOGEN DOSE (STUDY DURATION: 48 WK), Target Tissue: Type of Lesion: MAMMARY GLAND: ADENOCARCINOMA, Dose [Carcinogen]: 100 MG/KG BW 1/WK FOR 8 WK BEGINNING AT 6 WK OF AGE, Promoter: NONE USED); 2/20 (10%), 2/19 (11%), -10%, not significant (Carcinogen: 2-AMINO-1-METHYL-6-PHENYL-1H-IMIDAZO[4,5-B]PYRID INE, 105650-23-5, Dose [Inhibitor]: 0, 0.02% IN THE DIET FOR 8 WK BEGINNING 3 D POST LAST CARCINOGEN DOSE (STUDY DURATION: 48 WK), Target Tissue: Type of Lesion: MAMMARY GLAND: FIBROADENOMA, Dose [Carcinogen]: 100 MG/KG BW 1/WK FOR 8 WK BEGINNING AT 6 WK OF AGE, Promoter: NONE USED); 12/20 (60%), 11/20 (55%), 8%, not significant (Carcinogen: 2-AMINO-1-METHYL-6-PHENYL-1H-IMIDAZO[4,5-B]PYRID INE, 105650-23-5, Dose [Inhibitor]: 0, 0.02% IN THE DIET FOR 8 WK BEGINNING 3 D PRIOR TO FIRST CARCINOGEN DOSE (STUDY DURATION: 48 WK), Target Tissue: Type of Lesion: MAMMARY GLAND: ADENOCARCINOMA, Dose [Carcinogen]: 100 MG/KG BW 1/WK FOR 8 WK CONCURRENT WITH INHIBITOR, Promoter: NONE USED); 2/20 (10%), 3/20 (15%), -50%, not significant (Carcinogen: 2-AMINO-1-METHYL-6-PHENYL-1H-IMIDAZO[4,5-B]PYRID INE, 105650-23-5, Dose [Inhibitor]: 0, 0.02% IN THE DIET FOR 8 WK BEGINNING 3 D PRIOR TO FIRST CARCINOGEN DOSE (STUDY DURATION: 48 WK), Target Tissue: Type of Lesion: MAMMARY GLAND: FIBROADENOMA, Dose [Carcinogen]: 100 MG/KG BW 1/WK FOR 8 WK CONCURRENT WITH INHIBITOR, Promoter: NONE USED); 12/20 (60%), 11/20 (55%), 8%, not significant (Carcinogen: 2-AMINO-1-METHYL-6-PHENYL-1H-IMIDAZO[4,5-B]PYRID INE, 105650-23-5, Dose [Inhibitor]: 0, 0.2% IN THE DIET FOR 8 WK BEGINNING 3 D POST LAST CARCINOGEN DOSE (STUDY DURATION: 48 WK), Target Tissue: Type of Lesion: MAMMARY GLAND: ADENOCARCINOMA, Dose [Carcinogen]: 100 MG/KG BW 1/WK FOR 8 WK BEGINNING AT 6 WK OF AGE, Promoter: NONE USED); 12/20 (60%), 13/20 (65%), -8%, not significant (Carcinogen: 2-AMINO-1-METHYL-6-PHENYL-1H-IMIDAZO[4,5-B]PYRID INE, 105650-23-5, Dose [Inhibitor]: 0, 0.2% IN THE DIET FOR 8 WK BEGINNING 3 D POST LAST CARCINOGEN DOSE (STUDY DURATION: 48 WK), Target Tissue: Type of Lesion: MAMMARY GLAND: ADENOCARCINOMA, Dose [Carcinogen]: 100 MG/KG BW 1/WK FOR 8 WK CONCURRENT WITH INHIBITOR, Promoter: NONE USED). Further, the “tumour outcome (control, treated, inhibition, significance)” value is listed as 2/20 (10%), 4/20 (20%), -100%, not significant (Carcinogen: 2-AMINO-1-METHYL-6-PHENYL-1H-IMIDAZO[4,5-B]PYRID INE, 105650-23-5, Dose [Inhibitor]: 0, 0.2% IN THE DIET FOR 8 WK BEGINNING 3 D PRIOR TO FIRST CARCINOGEN DOSE (STUDY DURATION: 48 WK), Target Tissue: Type of Lesion: MAMMARY GLAND: FIBROADENOMA, Dose [Carcinogen]: 100 MG/KG BW 1/WK FOR 8 WK CONCURRENT WITH INHIBITOR, Promoter: NONE USED); 2/20 (10%), 2/20 (10%), 0%, not significant (Carcinogen: 2-AMINO-1-METHYL-6-PHENYL-1H-IMIDAZO[4,5-B]PYRID INE, Dose [Inhibitor]: 0, 0.2% IN THE DIET FOR 8 WK BEGINNING 3 D POST LAST CARCINOGEN DOSE (STUDY DURATION: 48 WK), Target Tissue: Type of Lesion: MAMMARY GLAND: FIBROADENOMA, Dose [Carcinogen]: 100 MG/KG BW 1/WK FOR 8 WK BEGINNING AT 6 WK OF AGE, Promoter: NONE USED); 12/20 (60%), 11/20 (55%), 8%, not significant (Carcinogen: 2-AMINO-1-METHYL-6-PHENYLIMIDAZO[4,5-B]PYRIDINE [105650-23-5], Dose [Inhibitor]: 0.02% IN DIET FOR 8 WK BEGINNING 3 D PRIOR TO FIRST CARCINOGEN DOSE (STUDY DURATION: 48 WK), Target Tissue: Type of Lesion: MAMMARY GLAND: CARCINOMA, Dose [Carcinogen]: 100 MG/KG BW 1X/WK FOR 8 WK (STUDY DURATION: 48 WK), Promoter: NONE); 2/20 (10%), 3/20 (15%), -50%, not significant (Carcinogen: 2-AMINO-1-METHYL-6-PHENYLIMIDAZO[4,5-B]PYRIDINE [105650-23-5], Dose [Inhibitor]: 0.02% IN DIET FOR 8 WK BEGINNING 3 D PRIOR TO FIRST CARCINOGEN DOSE (STUDY DURATION: 48 WK), Target Tissue: Type of Lesion: MAMMARY GLAND: FIBROADENOMA, Dose [Carcinogen]: 100 MG/KG BW 1X/WK FOR 8 WK (STUDY DURATION: 48 WK), Promoter: NONE); 12/20 (60%), 10/19 (53%), 12%, not significant (Carcinogen: 2-AMINO-1-METHYL-6-PHENYLIMIDAZO[4,5-B]PYRIDINE [105650-23-5], Dose [Inhibitor]: 0.02% IN DIET FOR 40 WK BEGINNING 3 D POST LAST CARCINOGEN DOSE (STUDY DURATION: 48 WK), Target Tissue: Type of Lesion: MAMMARY GLAND: CARCINOMA, Dose [Carcinogen]: 100 MG/KG BW 1X/WK FOR 8 WK (STUDY DURATION: 48 WK), Promoter: NONE); 2/20 (10%), 2/19 (11%), -10%, not significant (Carcinogen: 2-AMINO-1-METHYL-6-PHENYLIMIDAZO[4,5-B]PYRIDINE [105650-23-5], Dose [Inhibitor]: 0.02% IN DIET FOR 40 WK BEGINNING 3 D POST LAST CARCINOGEN DOSE (STUDY DURATION: 48 WK), Target Tissue: Type of Lesion: MAMMARY GLAND: FIBROADENOMA, Dose [Carcinogen]: 100 MG/KG BW 1X FOR 8 WK (STUDY DURATION: 48 WK), Promoter: NONE). The “tumour outcome (control, treated, inhibition, significance)” value (Carcinogen: 2-AMINO-1-METHYL-6-PHENYLIMIDAZO[4,5-B]PYRIDINE [105650-23-5], Dose [Inhibitor]: 0.2% IN DIET FOR 8 WK BEGINNING 3 D PRIOR TO FIRST CARCINOGEN DOSE (STUDY DURATION: 48 WK), Target Tissue: Type of Lesion: MAMMARY GLAND: CARCINOMA, Dose [Carcinogen]: 100 MG/KG BW 1X/WK FOR 8 WK (STUDY DURATION: 48 WK), Promoter: NONE) is 12/20 (60%), 13/20 (65%), -8%, not significant; the “tumour outcome (control, treated, inhibition, significance)” value (Carcinogen: 2-AMINO-1-METHYL-6-PHENYLIMIDAZO[4,5-B]PYRIDINE [105650-23-5], Dose [Inhibitor]: 0.2% IN DIET FOR 8 WK BEGINNING 3 D PRIOR TO FIRST CARCINOGEN DOSE (STUDY DURATION: 48 WK), Target Tissue: Type of Lesion: MAMMARY GLAND: FIBROADENOMA, Dose [Carcinogen]: 100 MG/KG BW 1X/WK FOR 8 WK (STUDY DURATION: 48 WK), Promoter: NONE) is reported as 2/20 (10%), 4/20 (20%), -100%, not significant; the “tumour outcome (control, treated, inhibition, significance)” value (Carcinogen: 2-AMINO-1-METHYL-6-PHENYLIMIDAZO[4,5-B]PYRIDINE [105650-23-5], Dose [Inhibitor]: 0.2% IN DIET FOR 40 WK BEGINNING 3 D POST LAST CARCINOGEN DOSE (STUDY DURATION: 48 WK), Target Tissue: Type of Lesion: MAMMARY GLAND: CARCINOMA, Dose [Carcinogen]: 100 MG/KG BW 1X FOR 8 WK (STUDY DURATION: 48 WK), Promoter: NONE) is recorded as 12/20 (60%), 11/20 (55%), 8%, not significant; the “tumour outcome (control, treated, inhibition, significance)” value (Carcinogen: 2-AMINO-1-METHYL-6-PHENYLIMIDAZO[4,5-B]PYRIDINE [105650-23-5], Dose [Inhibitor]: 0.2% IN DIET FOR 40 WK BEGINNING 3 D POST LAST CARCINOGEN DOSE (STUDY DURATION: 48 WK), Target Tissue: Type of Lesion: MAMMARY GLAND: FIBROADENOMA, Dose [Carcinogen]: 100 MG/KG BW 1X FOR 8 WK (STUDY DURATION: 48 WK), Promoter: NONE) is listed as 2/20 (10%), 2/20 (10%), 0%, not significant.
